Laboratory results published in the supplement of paper PMC10307832.

How the values were obtained:
Test in all cases: relative viability (nuclei count vs DMSO), 5 days (fraction); higher = more cells survive
RU-SKI 43 = compound: CC[C@@H](C)CNCC(=O)N1CCC2=C([C@@H]1COC3=CC=CC(=C3)C)C=CS2 [RU-SKI 43]
Method in brief: (§1)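 Vehicle-anchored 1536-well plates of lung cancer cell lines, held overnight at 37 °C, were pinned with five library-drug doses (not always all listed) spaced by √10. No medium change followed over the next 5 days, after which the cells were fixed, permeabilised and Hoechst-stained together and imaged at 4×. Nuclei were counted with MetaXpress, and viability is treated-well nuclei over vehicle-well nuclei, taken as a median across plates. Plates passed with control CV below 25% and at least one doubling.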

Irinotecan = compound: CCc1c2c(nc3ccc(OC(=O)N4CCC(N5CCCCC5)CC4)cc13)-c1cc3c(c(=O)n1C2)COC(=O)[C@]3(O)CC [Irinotecan]
Method in brief: as §1

MK-8033 = compound: Cn1cc(-c2cnc3ccc4ccc(CS(=O)(=O)NCc5ccccn5)cc4c(=O)c3c2)cn1 [MK-8033]
Method in brief: as §1

RU-SKI 43 + Foretinib = compound: CC[C@@H](C)CNCC(=O)N1CCC2=C([C@@H]1COC3=CC=CC(=C3)C)C=CS2 [RU-SKI 43] + COc1cc2c(Oc3ccc(NC(=O)C4(C(=O)Nc5ccc(F)cc5)CC4)cc3F)ccnc2cc1OCCCN1CCOCC1 [Foretinib] (partner 0.25 µM)
Method in brief: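 Five library-drug doses in √10 steps were combined with a fixed anchor-drug dose, or a single drug was given alone, by pin tool to lung cancer cell lines in 1536-well plates the day after seeding. Nuclei were stained and counted after 5 days. Relative viability is the nuclei count in treated wells over that in vehicle wells, taken as the median of duplicate plates.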

Row | Cell Line | relative viability (RU-SKI 43; 0.1 µM) | relative viability (RU-SKI 43; 0.3162 µM) | relative viability (RU-SKI 43; 1 µM) | relative viability (RU-SKI 43; 3.162 µM) | relative viability (RU-SKI 43; 10 µM) | relative viability (Irinotecan; 0.6325 µM) | relative viability (Irinotecan; 2 µM) | relative viability (Irinotecan; 6.325 µM) | relative viability (Irinotecan; 20 µM) | relative viability (MK-8033; 0.02 µM) | relative viability (MK-8033; 0.06325 µM) | relative viability (MK-8033; 0.2 µM) | relative viability (MK-8033; 0.6325 µM) | relative viability (MK-8033; 2 µM) | relative viability (RU-SKI 43 + Foretinib; first compound 0.1 µM) | relative viability (RU-SKI 43 + Foretinib; first compound 0.3162 µM) | relative viability (RU-SKI 43 + Foretinib; first compound 1 µM) | relative viability (RU-SKI 43 + Foretinib; first compound 3.162 µM) | relative viability (RU-SKI 43 + Foretinib; first compound 10 µM)
1 | NCI-H1703 | 0.82 | 1.23 | 0.854 | 0.972 | 0.52 | 0.761 | 1.32 | 0.613 | 0.205 | 0.896 | 0.85 | 0.825 | 0.911 | 0.855 | 0.388 | 0.33 | 0.297 | 0.337 | 0.295
2 | HARA | 1.06 | 0.959 | 1.05 | 1.06 | 0.84 | 0.612 | 0.618 | 0.308 | 0.245 | 0.97 | 0.769 | 0.87 | 0.806 | 0.944 | 1.06 | 1.25 | 1.01 | 1.25 | 1.13
3 | LOU-NH91 | 0.971 | 0.918 | 1.03 | 0.939 | 0.932 | 0.898 | 0.971 | 0.456 | 0.385 | 0.979 | 0.712 | 0.941 | 0.937 | 0.975 | 0.953 | 0.912 | 0.914 | 1.01 | 0.897
4 | COR-L 105 | 1.01 | 0.853 | 0.963 | 1.07 | 0.899 | 0.803 | 0.903 | 0.603 | 0.339 | 1.04 | 0.809 | 0.854 | 0.94 | 0.826 | 0.995 | 0.903 | 1.18 | 1.04 | 0.736
5 | NCI-H838 | 0.97 | 0.965 | 1.05 | 1 | 0.981 | 1.05 | 1.02 | 0.526 | 0.316 | 0.954 | 0.923 | 0.919 | 0.952 | 0.953 | 1.15 | 0.994 | 0.987 | 1.21 | 0.964
6 | NCI-H1975 | 1.07 | 1.25 | 1.05 | 1.01 | 0.922 | 0.894 | 1.04 | 0.622 | 0.196 | 0.892 | 0.905 | 0.862 | 0.854 | 0.931 | 1.09 | 1.28 | 1.01 | 0.922 | 0.939
